Literature values as cited in patent US20020019373A1, “Combinations of bisphosphonates and estrogenic agents” (American Home Products Corporation, priority 2000, published 2002).

System: Paget's disease of the bone
Settings: approved by the FDA for Paget's disease of the bone (30-mg tablets)

O=P(O)(O)C(O)(Cc1cccnc1)P(=O)(O)O [Risedronate]
effectiveness in clinical trials: effective
